Results on 14 molecules are retold here after PubChem BioAssay (NCI).

Several values for one entry are separate records, joined by “and”; a condition that tells them apart may be missing. Equal values may be shown once.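 The compound was tested at five concentrations on cells cultured in 96-well plates, with a 48-hour exposure period. Abbreviation: GI50, concentration required for 50% inhibition of growth. TGI: concentration producing complete growth inhibition.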 Some results are limits rather than exact numbers.

Common to all, as to test: DTP human tumour cell line panel, 48 h
Assay [1] relates to UACC-62 melanoma.
The test system of assay [2] is BT-549 breast.
Assay [3] concerns CCRF-CEM leukemia.
Assay [4] has as its system NCI-H226 lung.
The test system of assay [5] is NCI/ADR-RES ovarian.
For assay [6], the system named is OVCAR-4 ovarian.
In assay [7] the test system is COLO 205 colon.
Assay [8] concerns HCT-116 colon.
In assay [9] the test system is HCT-15 colon.
Assay [10] deals with SF-295 CNS.

On to `CN(C)CC(=O)N1CCC(c2ccc(NC(=O)c3ncc(C#N)[nH]3)c(C3=CCCCC3)c2)CC1`, for which the GI50 in assay [1] is 3.3 µM; in assay [2] it was 4.52 µM; in [3], 7.26 µM; in assay [4], 11.3 µM; in assay [5], 14.8 µM; in assay [6] it was 10.1 µM. Also, the GI50 was 4.43 µM in assay [7], 3.97 µM in [8], 2.71 µM in [9] and 3.75 µM in [10]. The total growth inhibition concentration (TGI) in [1] is 11.7 µM; in [2], 16.1 µM; in [3], 28.5 µM; in assay [4], 24.2 µM; in [5], 33.8 µM; in assay [6], 23 µM. Further, the TGI in assay [7] was found to be 14.1 µM; in [8] it was 14.1 µM; in [9], 9.22 µM; in assay [10], 15.7 µM.

Take `C=C1C(O)C2CCC(C)(C)C(=O)C2=C(CC(C)C)C12CC2` (configuration not stated): the GI50 is 90.8 µM in assay [1]; > 100 µM in [2]; 36.8 µM in assay [3]; 43.5 µM in [4]; 45.4 µM in assay [5]; > 100 µM in assay [6]. Moreover, the GI50 in assay [7] is 22.7 µM; in assay [8] it was 37.2 µM; in assay [9], 54.4 µM; in assay [10], 36.6 µM. The TGI in [1], in assay [2], in assay [3], in assay [4], in [5] and in assay [6] was > 100 µM each time. The TGI in assay [7] is 53.6 µM; in [8], > 100 µM; in assay [9] it was > 100 µM; in [10], > 100 µM.

Regarding `COc1ccc(-c2cc(-c3cc(Cl)ccc3Cl)nc3[nH]c(-c4cc(F)c(Cl)cc4Cl)cc(=O)c23)cc1`, the GI50 in assay [1] was 14.3 µM; in assay [2] it was 29.6 µM; in assay [3], 18.4 µM; in assay [4] it was 20.5 µM; in assay [5], 4.95 µM; in assay [6], > 100 µM. Moreover, the GI50 in assay [7] is 43.6 µM; in assay [8], 9.69 µM; in assay [9], 17.1 µM; in assay [10] it was 23.8 µM. Moreover, the TGI was 93.4 µM in assay [1]; > 100 µM in assay [2]; 55.1 µM in assay [3]; 63.6 µM in [4]; 23.2 µM in assay [5]; > 100 µM in assay [6]. Besides, the TGI in assay [7] was > 100 µM; in [8] it was 24.7 µM; in assay [9], 56.1 µM; in assay [10] it was > 100 µM.

Regarding `C=CC(=O)N[C@H]1C=C(C)c2c(-c3cnc4ccccc4c3)c3c(N)ncnc3n2C1`, the GI50 in [1] was 8.05 µM; in [2], 12.5 µM; in assay [3] it was 22.3 µM; in assay [4], 8.85 µM; in [5] it was 21.3 µM; in assay [6] it was 13.5 µM. Besides, the GI50 in assay [7] was 15.4 µM; in assay [8], 13.2 µM; in assay [9] it was 23.1 µM; in assay [10] it was 22.9 µM. Further, the TGI was 24.8 µM in assay [1]; 41.9 µM in [2]; > 100 µM in assay [3]; > 68.1 µM in [4]; > 87.9 µM in assay [5]; > 100 µM in [6]. For the same molecule, the TGI in [7] is 43.8 µM; in assay [8] it was 34.7 µM; in [9] it was > 80.3 µM; in [10], 68 µM.

For `NC(CO)Cc1cnc[nH]1` (configuration not stated), the GI50 in assay [1], in assay [3], in assay [4], in assay [5], in [7] and in assay [8] was > 100 µM throughout. For the same molecule, the GI50 in assay [9] and in [10] was > 100 µM each time. The TGI in assay [1] was > 100 µM; in [2] it was > 100 µM; in [3] it was > 100 µM; in assay [4], > 100 µM; in assay [5], > 100 µM; in assay [6], > 10 µM. Moreover, the TGI in assay [7], in [8], in [9] and in [10] was > 100 µM in each case.

As to `N#Cc1c(NC(=O)c2cccc(C(F)(F)F)c2)sc2c1CCC(=O)C2`, the GI50 in assay [1] was 0.495 µM; in [2] it was 0.419 µM; in [3], 0.262 µM; in assay [4] it was 1.55 µM; in [5], 1.62 µM; in [6] it was 0.298 µM. The GI50 in [7] is 0.289 µM; in assay [8], 0.336 µM; in [9] it was 0.337 µM; in [10] it was 0.845 µM. The TGI in [1] is 2.14 µM; in assay [2] it was 2.06 µM; in assay [3] it was > 100 µM; in assay [4], 5.02 µM; in [5], 7.77 µM; in assay [6] it was 0.952 µM. In addition, the TGI in [7] stood at 0.809 µM; in assay [8], 1.56 µM; in assay [9] it was 1.66 µM; in assay [10], 3.88 µM.

As for `CN=C(N)N/N=C(\c1ccccc1)c1ccc(Br)cc1`, the GI50 in [1] was 0.859 µM; in assay [2] it was 1.5 µM; in assay [3], 0.32 µM; in assay [4], 1.09 µM; in [5], 0.322 µM; in [6], 0.713 µM. Further, the GI50 is 0.279 µM in assay [7], 0.309 µM in assay [8], 0.306 µM in assay [9] and 0.287 µM in [10]. Further, the TGI in [1] is 9.16 µM; in [2] it was 12.7 µM; in assay [3], 4.66 µM; in assay [4], 11.8 µM; in [5] it was 3.25 µM; in assay [6], 15.2 µM. Moreover, the concentration for total growth inhibition (TGI) in assay [7] was 1.04 µM; in assay [8] it was 3.3 µM; in assay [9], 7.24 µM; in assay [10] it was 1.48 µM.

Take `Cc1nn(-c2ccc(F)cc2)c2ncnc(Nc3ccc(NC(=O)Nc4ccc(Cl)c(C(F)(F)F)c4)cc3)c12`: the GI50 in assay [1] was 2.65 µM; in assay [2], 2.39 µM; in assay [3] it was 1.57 µM; in [4], 2.31 µM; in assay [5], 2.43 µM; in assay [6], 2.46 µM. For the same molecule, the GI50 in assay [7] is 1.87 µM; in assay [8], 1.51 µM; in [9], 2.73 µM; in [10], 2.25 µM. In addition, the TGI in assay [1] was found to be 11.3 µM; in [2] it was 8.48 µM; in assay [3] it was 13.2 µM; in assay [4], 5.99 µM; in assay [5], 10.9 µM; in assay [6], 7.13 µM. Further, the TGI in assay [7] was found to be 3.95 µM; in assay [8], 5.07 µM; in assay [9], 12.5 µM; in [10], 6.17 µM.

For the molecule `CSc1nc(SC)c2c(CN=[N+]=[N-])c(Br)n(Cc3ccccc3)c2n1`, the TGI in [1], in [2], in [3], in assay [4], in [5] and in assay [6] was > 100 µM in each case. For the same molecule, the TGI in assay [7], in [8], in assay [9] and in assay [10] was > 100 µM throughout.

As for `COC1(C(=O)N2Cc3nc(Cl)nc(N[C@H](C)c4cc(N)cc(C(F)(F)F)c4)c3C2)CCOCC1`, the GI50 in [1] is 13.8 µM; in assay [2] it was 12.4 µM; in assay [3] it was 31.3 µM; in assay [4] it was 18.2 µM; in assay [5] it was 24.6 µM; in assay [6] it was 19.8 µM. Besides, the GI50 in assay [7] was 18 µM; in assay [8] it was 15.2 µM; in assay [9], 23.2 µM; in assay [10], 12.5 µM. The total growth inhibition concentration (TGI) in [1] was 27.7 µM; in [2] it was 28.2 µM; in assay [3], 99 µM; in [4] it was 72.2 µM; in assay [5] it was > 94.5 µM; in [6], 99.2 µM. For the same molecule, the TGI in assay [7] was 33.8 µM; in [8], 30.4 µM; in assay [9], > 76.3 µM; in [10], 26.2 µM.

For the molecule `CNC(=O)c1ccccc1CC1(O)c2ccccc2Oc2ccccc21`, the GI50 in [1] is 10.4 µM; in [2], 25.9 µM; in assay [3], 24.6 µM; in assay [4], 11.3 µM; in assay [5], 10.1 µM; in assay [6], 27.8 µM. Also, the GI50 in assay [7] is 3.99 µM; in assay [8], 21.8 µM; in assay [9], 12.7 µM; in assay [10], 20.7 µM. For the same molecule, the TGI was 52.6 µM in assay [1]; > 100 µM in [2]; > 100 µM in assay [3]; 34.8 µM in [4]; 86.9 µM in [5]; > 100 µM in assay [6]. Further, the total growth inhibition concentration (TGI) is 15.9 µM in assay [7], > 100 µM in assay [8], > 100 µM in assay [9] and > 100 µM in [10].

Regarding `O=c1cc(-c2cccc(F)c2)[nH]c2cc3c(cc12)OCO3`, the TGI in assay [1] was > 64.9 µM; in assay [2], > 100 µM; in assay [3], 75 µM and > 10.8 µM; in assay [4], 9.77 µM and 1.49 µM; in assay [5], 0.0497 µM; in assay [6], > 68.1 µM. Also, the TGI in [7] was 0.364 µM; in [8] it was 2.91 µM and 15.7 µM; in [9], 12.1 µM and > 24.9 µM. Moreover, the concentration for 50% growth inhibition (GI50) is 0.346 µM in assay [3]; 0.951 µM and 0.0963 µM in assay [4]; 0.22 µM in assay [8]; 0.29 µM in [9]; 0.141 µM in assay [10].

As for `CN1CCN(Cc2ccc(C(=O)Nc3cncc(C#Cc4cnc(N)c5ccccc45)c3)cc2C(F)(F)F)CC1`, the GI50 was 5.22 µM in assay [1]; 12.7 µM in assay [2]; 2.91 µM in [3]; 3.18 µM in assay [4]; 1.93 µM in [5]; 1.18 µM in [6]. Also, the GI50 was 3.69 µM in [7], 1.36 µM in assay [8], 1.94 µM in assay [9] and 1.86 µM in assay [10]. The TGI in [1] worked out at 17.5 µM; in assay [2], 25.4 µM; in assay [3], 9.07 µM; in assay [4], 27.5 µM; in [5], 4.22 µM; in assay [6], 3.05 µM. Further, the TGI in assay [7] is 13.3 µM; in [8], 2.7 µM; in assay [9], 4.6 µM; in [10], 3.46 µM.

For `CCn1c(-c2nonc2N)nc2c(C#CCN)ncc(OCCCN)c21`, the GI50 in [1], in assay [2], in assay [3], in assay [4], in [5] and in assay [6] was > 25 µM in each case. Further, the GI50 in assay [7], in assay [8], in assay [9] and in assay [10] was > 25 µM throughout. The TGI in assay [1], in assay [2], in assay [3], in assay [4], in assay [5] and in assay [6] was > 25 µM each time. Also, the concentration for total growth inhibition (TGI) in assay [7], in assay [8], in [9] and in [10] was > 25 µM in each case.

Broadly, the GI50 is the concentration at which growth is held to half of that of the control. A word on the TGI: it is the concentration at which net growth stops.
